Reference: patent publication US9884821B2, “N1-cyclic amine-N5-substituted biguanide derivatives, methods of preparing the same and pharmaceutical composition comprising the same” (IMMUNOMET THERAPEUTICS INC., priority 2013, dated 2018)

What was measured:
[1] = test system: AMPK; experiment: AMPK activation effect (AMPK [pT172] ELISA) in MCF7 cells; assay type: cell-based, human; settings: 24 hours; for AMPK activation effect (%) 5 μM / AMPK activation effect (%) 10 μM / AMPK activation effect (%) 50 μM: AMPKα Thr172 phosphorylation relative to untreated cells; for AC150: concentration at which AMPK activation reached 150%
Protocol: ELISA kit (Invitrogen, Catalog No. KH00651).
MCF7 cells were cultured in a DMEM medium supplemented with 10% fatal bovine serum (commercially available from Gibco Life Technologies (US)). Thereafter, the cultured MCF7 cells were put into a 6-well plate with approximately 5×10^5 cells per well, and cultured in an incubator supplied with 5% CO2. Culture media were treated with the derivatives synthesized in the Examples at concentrations of 5, 10 and 50 uM, and then cultured for 24 hours. […] Subsequently, the cells were lysed according to a method presented in the operation manual of the AMPK [pT172] ELISA kit, and 20 μg of a cell lysate was then yielded through protein assay. Thereafter, the AMPK activation effect was obtained by determining a degree of phosphorylation of a 172nd threonine residue (Thr172) of the AMPKα from the cell lysate according to the method presented in the operation manual of the AMPK [pT172] ELISA kit.

[2] = test system: HCT116 cells; experiment: Effect of inhibiting cancer cell proliferation (MTT) in HCT116 cells; assay type: cell-based, human; settings: Homo sapiens, HCT-116, 48 h; for inhibition at 25 µM: read-out: Cell growth inhibition (%) at 25 μM; for inhibition at 100 µM: read-out: Cell growth inhibition (%) at 100 μM
From the text: HCT116 cells derived from human colorectal cancer were used, and an effect of inhibiting cancer cell proliferation of the biguanide derivative was confirmed by measuring a concentration value (cell growth inhibition concentration, GIC50) at which cell growth was inhibited by 50% using a 3-(4,5-dimethylthiazol-2-yl)-2,5-diphenyltetrazolium bromide (MTT) reagent.
First, HCT116 cells (purchased from the KCLB) were put on a 96-well plate and cultured in a DMEM medium supplemented with 10% fatal bovine serum (commercially available from Gibco Life Technologies (US)) for 16 hours so that approximately 5,000 cells were counted in each well. Subsequently, to obtain the GIC50 value of each compound, the culture media were treated with 100 μM, 25 μM, 6.25 μM, 1.56 μM or 0.39 μM of the compound, and then cultured for 48 hours. In order to determine whether the cells survived after treatment with the compounds, MTT (commercially available from AMRESCO (US)) was added to the culture media which were then cultured for another 3 hours. Formed formazane crystals were dissolved using dimethyl sulfoxide (DMSO) and the absorbance of the resulting solution was measured at 560 nm. After the 48-hour culture, a ratio of a living cell count on a well plate treated with the compounds synthesized in the Examples to a cell count cultured on a well plate not treated with the compound was indicated as cell viability (%) according to the concentration of each treated compound. The cell viability (%) was used to plot a cell viability curve graph and calculate a concentration (GIC50) value of the compound at which the growth was inhibited by 50%, thereby confirming the inhibition effect of cancer cell proliferation.

SMILES | AMPK activation effect (%) 5 μM [1] [%] | AMPK activation effect (%) 10 μM [1] [%] | AC150 [1] [µM] | GI50 [2] [µM] | inhibition at 25 µM [2] [%] | AMPK activation effect (%) 50 μM [1] [%] | inhibition at 100 µM [2] [%]
CC1CCCC(C)N1C(=N)NC(=N)Nc1ccc(C(F)(F)F)cc1.Cl (stereo not drawn) [Example 91, N1-(2,6-dimethyl)piperidine-N5-(4-trifluoromethyl)phenyl biguanide hydrochloride] | 108 | 214 | 5.6 | 11.4 | 100 | – | –
CC1CCCCN1C(=N)NC(=N)Nc1ccc(F)c(C(F)(F)F)c1.Cl (stereo not drawn) [Example 78, N1-(2-methyl)piperidine-N5-(4-fluoro, 3-trifluoromethyl)phenyl biguanide hydrochloride] | 425 | 565 | 0.5 | 7 | 100 | – | –
Cc1ccc(NC(=N)NC(=N)N2CC=CCC2)cc1.Cl [Example 48, N1-1,2,3,6-tetrahydropyridine-N5-(4-methyl)phenyl biguanide hydrochloride] | – | 178 | 4.9 | 42.5 | – | 691 | 97.6
Cc1cccc(NC(=N)NC(=N)N2CC=CC2)c1.Cl [Example 51, N1-1,2-dihydropyrrole-N5-(3-methyl)phenyl biguanide hydrochloride] | – | 241 | 3.1 | 102 | – | 409 | 48.7
Cl.N=C(NC(=N)N1CC=CC1)Nc1cccc(C(F)(F)F)c1 [Example 6, N1-1,2-dihydropyrrole-N5-(3-trifluoromethyl)phenyl biguanide hydrochloride] | – | 124 | >50 | 12.9 | – | 136 | 99.6
CC1CCCN(C(=N)NC(=N)NCc2ccc(Cl)cc2)C1.Cl (stereo not drawn) [Example 66, N1-(3-methyl)piperidine-N5-(4-chloro)benzyl biguanide hydrochloride] | 101 | 204 | 6.2 | 18.5 | 67.4 | – | –
Cl.N=C(NCc1cccc(C(F)(F)F)c1)NC(=N)N1CC=CC1 [Example 12, N1-1,2-dihydropyrrole-N5-(3-trifluoromethyl)benzyl biguanide hydrochloride] | – | 97 | 13.8 | 84.8 | – | 357 | 53.8
COc1cccc(NC(=N)NC(=N)N2CC=CCC2)c1.Cl [Example 41, N1-1,2,3,6-tetrahydropyridine-N5-(3-methoxyl)phenyl biguanide hydrochloride] | – | 125 | 22.4 | 88.2 | – | 201 | 55.9
Cl.N=C(N)NC(=N)N1CC=CCC1 [Example 61, N1-1,2,3,6-tetrahydropyridine biguanide hydrochloride] | – | 123 | >50 | > 100 | – | 132 | 10.5
CC1CCCCN1C(=N)NC(=N)Nc1cccc(C(F)(F)F)c1.Cl (stereo not drawn) [Example 79, N1-(2-methyl)piperidine-N5-(3-trifluoromethyl)phenyl biguanide hydrochloride] | 177 | 515 | 1.9 | 9.4 | 98.9 | – | –
CC1CCCC(C)N1C(=N)NC(=N)Nc1ccc(Cl)cc1.Cl (stereo not drawn) [Example 96, N1-(2,6-dimethyl)piperidine-N5-(4-chloro)phenyl biguanide hydrochloride] | 240 | 395 | 1.8 | 10.4 | 101 | – | –
CC1CCCCN1C(=N)NC(=N)Nc1cccc(OC(F)(F)F)c1.Cl (stereo not drawn) [Example 73, N1-(2-methyl)piperidine-N5-(3-trifluoromethoxy)phenyl biguanide hydrochloride] | 215 | 384 | 2.0 | 6.7 | 100 | – | –
Cl.N=C(NC(=N)N1CC=CC1)Nc1cccc(OC(F)(F)F)c1 [Example 52, N1-1,2-dihydropyrrole-N5-(3-trifluoromethoxy)phenyl biguanide hydrochloride] | – | 352 | 2.7 | 15.4 | – | – | 100
Cc1cccc(NC(=N)NC(=N)N2CC=CCC2)c1.Cl [Example 49, N1-1,2,3,6-tetrahydropyridine-N5-(3-methyl)phenyl biguanide hydrochloride] | – | 319 | 1.9 | 57 | – | 917 | 91.8
COc1cc(NC(=N)NC(=N)N2CC=CC2)cc(OC)c1.Cl [Example 45, N1-1,2-dihydropyrrole-N5-(3,5-dimethoxy)phenyl biguanide hydrochloride] | – | 202 | 4.8 | 107 | – | 299 | 47.2
CC1CCCN(C(=N)NC(=N)Nc2ccc(Cl)cc2)C1.Cl (stereo not drawn) [Example 87, N1-(3-methyl)piperidine-N5-(4-chloro)phenyl biguanide hydrochloride] | 219 | 297 | 1.9 | 10 | 100 | – | –
CC1CCCC(C)N1C(=N)NC(=N)Nc1ccc(OC(F)(F)F)c(F)c1.Cl (stereo not drawn) [Example 95, N1-(2,6-dimethyl)piperidine-N5-(3-fluoro, 4-trifluoromethoxy)phenyl biguanide] | 130 | 326 | 3.1 | 2.9 | 101 | – | –
CC1CCCC(C)N1C(=N)NC(=N)Nc1ccc(OC(F)(F)F)cc1.Cl (stereo not drawn) [Example 89, N1-(2,6-dimethyl)piperidine-N5-(4-trifluoromethoxy)phenyl biguanide hydrochloride] | 153 | 198 | 4.7 | 6.2 | 100 | – | –
Cl.N=C(NC(=N)N1CC=CCC1)Nc1cccc(C(F)(F)F)c1 [Example 31, N1-1,2,3,6-tetrahydropyridine-N5-(3-trifluoromethyl)phenyl biguanide hydrochloride] | – | 391 | 1.8 | 7.8 | – | – | 99.5
CC1CCCN(C(=N)NC(=N)Nc2cccc(C(F)(F)F)c2)C1.Cl (stereo not drawn) [Example 88, N1-(3-methyl)piperidine-N5-(3-trifluoromethyl)phenyl biguanide hydrochloride] | 327 | 399 | 0.7 | 6.6 | 100 | – | –
CCCNC(=N)NC(=N)N1CC=CCC1.Cl [Example 60, N1-1,2,3,6-tetrahydropyridine-N5-propyl biguanide hydrochloride] | – | 108 | 12.4 | 99.8 | – | 338 | 50.1
CC1CCCN(C(=N)NC(=N)Nc2ccc(OC(F)(F)F)cc2)C1.Cl (stereo not drawn) [Example 82, N1-(3-methyl)piperidine-N5-(4-trifluoromethoxy)phenyl biguanide hydrochloride] | 401 | 474 | 0.5 | 7 | 100 | – | –
